What was measured:
11β-HSD2 = molecular target: T1, 11β-HSD2 (Homo sapiens, UniProt P80365); experiment: 11β-HSD2 activity in lysates of stably transfected HEK-293 cells; assay type: biochemical; details: cell lysate
T1 construct: expressed in transfected cells
T1 sequence (P80365 1-405): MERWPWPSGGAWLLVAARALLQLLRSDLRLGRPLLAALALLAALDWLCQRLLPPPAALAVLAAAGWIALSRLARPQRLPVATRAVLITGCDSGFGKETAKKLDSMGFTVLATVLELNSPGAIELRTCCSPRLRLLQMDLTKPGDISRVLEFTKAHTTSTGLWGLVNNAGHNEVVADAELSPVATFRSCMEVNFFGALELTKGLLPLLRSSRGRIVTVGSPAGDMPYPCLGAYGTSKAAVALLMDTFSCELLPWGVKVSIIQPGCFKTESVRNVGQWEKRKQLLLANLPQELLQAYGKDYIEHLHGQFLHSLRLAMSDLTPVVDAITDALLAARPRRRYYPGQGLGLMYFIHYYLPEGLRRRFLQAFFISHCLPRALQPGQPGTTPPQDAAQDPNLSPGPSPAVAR
Protocol: (§1) Cell culture media were purchased from Invitrogen, Basel, Switzerland. [1,2,6,7-3H]-cortisol was from Amersham Pharmacia, Dubendorf, Switzerland. [1,2,6,7-3H]-cortisone was produced by incubating 1 mCi of [1,2,6,7-3H]-cortisol with 1 mg of lysate of HEK-293 cells expressing 11β-HSD2 in the presence of 1 mM NAD+. Incubation was for 16 h at 37° C. […] The product was run for a second chromatographic purification step on the same TLC system. […] All other chemicals were from Fluka AG, Buchs, Switzerland and were of the highest grade available.
HEK-293 cells were transfected with the plasmid for expression of carboxy-terminally FLAG-epitope tagged 11β-HSD1 or 11β-HSD2, respectively, that were described previously. […] Non-resistant cells were removed by replacing the cell culture medium every third day for 3 weeks. […]
(§2) Similarly, reductase activity was measured in a reaction containing NADPH, 30 nCi of [1,2,6,7-3H]-cortisone and unlabeled cortisone, whereby final concentrations were 400 μM NADPH and 10 nM cortisone. […] Activities were determined measuring the conversion of either radiolabeled cortisone or cortisol for 5-20 min using substrate concentrations in the range between 10 nM and 10 μM. 11β-HSD1 activities were measured immediately after cell disruption. […] Results are expressed as mean±S.D. and consist of at least three independent measurements.

11β-HSD1 = molecular target: T2, 11β-HSD1 (Homo sapiens, UniProt P28845); experiment: 11β-HSD1 activity in lysates of stably transfected HEK-293 cells; assay type: biochemical; details: cell lysate
T2 construct: expressed in transfected cells
Protocol: as §1
HEK-293 cells were transfected with the plasmid for expression of carboxy-terminally FLAG-epitope tagged 11β-HSD1 or 11β-HSD2, respectively, that were described previously. […] Non-resistant cells were removed by replacing the cell culture medium every third day for 3 weeks.
For determination of oxidative activity of 11β-HSD enzymes, cells were lysed by sonication and the cell lysate was diluted 1:12 in buffer TS2 (at 4° C.).
as §2

TNFα = TNFα expression; assay type: cell-based
Description: Accordingly, in a further embodiment of the present invention, there is included a method of treating inflammatory diseases comprising administering a TNFα-downregulating effective amount of a compound of the invention to a subject in need thereof. A person skilled in the art would be able to identify TNFα-downregulating compounds of the invention by contacting one or more cells with a compound of the invention and assaying for the presence of one TNFα and comparing the levels of TNFα in the one or more cells with that of controls. Such methods are known in the art and are described in the examples herein below.

[1] = tested on: murine retinal ganglion cells; details: cited from earlier work
CK-2 = details: 30 μM GA; cited from earlier work
PKC and CK-I = details: GL (100 μM); cited from earlier work

T2 sequence (P28845 whole entry): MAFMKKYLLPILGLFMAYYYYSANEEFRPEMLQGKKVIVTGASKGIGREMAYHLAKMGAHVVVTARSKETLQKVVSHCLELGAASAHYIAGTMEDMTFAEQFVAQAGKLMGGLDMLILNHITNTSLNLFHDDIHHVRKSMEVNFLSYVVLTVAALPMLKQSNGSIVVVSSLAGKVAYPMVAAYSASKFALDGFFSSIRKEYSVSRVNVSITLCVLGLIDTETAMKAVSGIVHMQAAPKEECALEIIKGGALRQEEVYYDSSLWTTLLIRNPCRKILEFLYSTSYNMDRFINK

Row | Structure (SMILES) | IC50 (11β-HSD2) [nM] | IC50 (11β-HSD1) [nM] | also measured
1 | CC(=O)O[C@H]1CC[C@@]2(C)C(CC[C@]3(C)C2C(=O)C=C2C4C[C@@](C)(C(=O)NO)CC[C@]4(C)CC[C@]23C)C1(C)C (stereo partly drawn) [Compound 1, (3S,18R,20S)-3-(Acetyloxy)-N-hydroxy-11-oxo-olean-12-en-29-amide] |  |  | TNFα expression (TNFα): inhibit
2 | CC1(C)[C@@H](O)CC[C@]2(C)[C@H]3C(=O)C=C4[C@@H]5C[C@@](C)(C(=O)O)CC[C@]5(C)CC[C@@]4(C)[C@]3(C)CC[C@@H]12 [GA, Glycyrrhetinic acid] |  |  | postsynaptic light response [1]: 30 % of control; phosphorylation of C3α by CK-2 (CK-2): completely inhibited
3 | CC1(C)[C@@H](O[C@H]2O[C@H](C(=O)O)[C@@H](O)[C@H](O)[C@H]2O[C@@H]2O[C@H](C(=O)O)[C@@H](O)[C@H](O)[C@H]2O)CC[C@]2(C)[C@H]3C(=O)C=C4[C@@H]5C[C@@](C)(C(=O)O)CC[C@]5(C)CC[C@@]4(C)[C@]3(C)CC[C@@H]12 [GL, glycyrrhizin] |  |  | phosphorylation of HMGB1/2 by PKC and CK-I (PKC and CK-I): completely inhibits

Second part, led by results:

Row | IC50 (11β-HSD2) [nM] | IC50 (11β-HSD1) [nM] | Structure (SMILES) | also measured
4 | 547 | > 40000 | CON[C@H]1CC[C@@]2(C)C(CC[C@]3(C)C2C(=O)C=C2C4C[C@@](C)(C(=O)N(C)O)CC[C@]4(C)CC[C@]23C)C1(C)C (stereo partly drawn) [Compound 10, (3S,18R,20S)-N-Hydroxy-N-methyl-3-methoxamino-11-dioxo-olean-12-en-29-amide] | 
5 | 2130 | 929 | CONC(=O)[C@@]1(C)CC[C@]2(C)CC[C@]3(C)C(=CC(=O)C4[C@@]5(C)CC[C@H](O)C(C)(C)C5CC[C@]43C)C2C1 (stereo partly drawn) [Compound 16, (3S,18R,20S)-3-Hydroxy-N-methoxy-11-oxo-olean-12-en-29-amide] | 
6 |  | 1160 | CC1(C)C2CC[C@]3(C)C(C(=O)C=C4C5C[C@@](C)(C(=O)NO)CC[C@]5(C)CC[C@]43C)[C@@]2(C)CC[C@@H]1O (stereo partly drawn) [Compound 2, (3S,18R,20S)-3-Hydroxy-N-hydroxy-11-oxo-olean-12-en-29-amide] | inhibition at 1 µM (11β-HSD1; Concentration 1000 nmol/L, read-out: Reduction of 11β-HSD1 Activity (%) (average ± standard deviation)): 46.7 ± 13.8%
